Here are results for one compound from PMC11858854, “In Vitro and In Vivo Assessment of Pharmacokinetic Profile of Peramivir in the Context of Inhalation Therapy” (Pharmaceuticals, 2025).

The nature of data set [1]: Tissue distribution study in rats. Type of data set: in vivo. The following applies: rat. As to the method:
Tissue distribution characteristics were studied following different deliveries of i.v. 3 mg/kg, i.t. 0.3 mg/kg, and i.t. 3 mg/kg in rats. The rats were euthanized at 5 min, 30 min, 1 h, 4 h, 12 h, and 24 h after administration. Blood was collected by puncture of the fundus venous plexus, and bronchoalveolar lavage was performed to obtain bronchoalveolar lavage (BAL) fluid samples, and then the main tissues were obtained by dissection. All the tissues were thoroughly rinsed in ice physiological saline, then weighed and stored at −40 °C for analysis.
Whole blood was placed in EP tubes containing sodium heparin, and plasma was extracted by centrifugation at 4 °C, 5000× g for 10 min. […] Drug concentrations in the samples were determined using the LC-MS/MS method and drug concentrations in the BAL were converted to drug concentrations in epithelial lining fluid (ELF) using the urea nitrogen correction method.
The apparent volume of ELF in BAL fluid was determined by the urea dilution method described by Rennard. The estimated concentration of drugs in ELF was calculated as follows:CELF = CBAL × (UPlasma/UBAL)(1) where CBAL is the measured drug concentration in BAL fluid and UPlasma and UBAL are the measured concentrations of urea nitrogen in plasma and BAL fluid, respectively.
The Kp of each tissue was calculated as follows:Kp = AUC(0–t, tissue)/AUC(0–t, plasma)(2)

Data set [2] relates to NCI-H441/dTHP co-culture model. The data set is described as follows: Bidirectional transport, NCI-H441/dTHP co-culture model. The data set is classed as in vitro ADME, human. Particulars: NCI-H441/dTHP, 2 μM. As to the method:
THP-1 cells were cultured in RPMI-1640 medium (Gibco, Thermo, CA, USA) supplemented with 10% FBS, PS (100 U/mL), and β-Mer (0.05 mM) at 37 °C in a humidified 5% CO2 incubator, and the medium was changed every other day. THP-1 cells were seeded at 4 × 10^5 cells/mL in six-well plates and induced for 48 h by adding medium containing a final concentration of 100 ng/mL PMA.
Then, the differentiated cells were seeded at 5 × 10^4 cells/well on the surface of NCI-H441 cells 10 days after air–liquid culture and continued to co-culture for 24 h.
(§1) We removed the liquid from the apical and basolateral of the Transwell, rinsed the cells three times with a buffer containing HBSS, 10 mM Hepes, and 0.1% BSA (Buffer A), and then added Buffer A (100 µL for the apical side and 600 µL for the basolateral side) for pre-incubation for 30 min at 37 °C. For the transport studies in the apical to basolateral (A-B) direction, 100 μL of pre-warmed test solution (Buffer A containing 2 µM positive control drugs or peramivir) was added to the apical side, while 600 μL of pre-warmed assay buffer, a buffer containing HBSS, 10 mM Hepes, and 1% BSA (Buffer B), was added to the basolateral compartment.

The target in data set [3] is human MDR1 (P-gp) (Homo sapiens, UniProt P08183). Nature of the data set: Permeability assay, LLC-PK1-MDR1 cells overexpressing P-gp.
Sequence of human MDR1 (P-gp) (P08183 whole entry): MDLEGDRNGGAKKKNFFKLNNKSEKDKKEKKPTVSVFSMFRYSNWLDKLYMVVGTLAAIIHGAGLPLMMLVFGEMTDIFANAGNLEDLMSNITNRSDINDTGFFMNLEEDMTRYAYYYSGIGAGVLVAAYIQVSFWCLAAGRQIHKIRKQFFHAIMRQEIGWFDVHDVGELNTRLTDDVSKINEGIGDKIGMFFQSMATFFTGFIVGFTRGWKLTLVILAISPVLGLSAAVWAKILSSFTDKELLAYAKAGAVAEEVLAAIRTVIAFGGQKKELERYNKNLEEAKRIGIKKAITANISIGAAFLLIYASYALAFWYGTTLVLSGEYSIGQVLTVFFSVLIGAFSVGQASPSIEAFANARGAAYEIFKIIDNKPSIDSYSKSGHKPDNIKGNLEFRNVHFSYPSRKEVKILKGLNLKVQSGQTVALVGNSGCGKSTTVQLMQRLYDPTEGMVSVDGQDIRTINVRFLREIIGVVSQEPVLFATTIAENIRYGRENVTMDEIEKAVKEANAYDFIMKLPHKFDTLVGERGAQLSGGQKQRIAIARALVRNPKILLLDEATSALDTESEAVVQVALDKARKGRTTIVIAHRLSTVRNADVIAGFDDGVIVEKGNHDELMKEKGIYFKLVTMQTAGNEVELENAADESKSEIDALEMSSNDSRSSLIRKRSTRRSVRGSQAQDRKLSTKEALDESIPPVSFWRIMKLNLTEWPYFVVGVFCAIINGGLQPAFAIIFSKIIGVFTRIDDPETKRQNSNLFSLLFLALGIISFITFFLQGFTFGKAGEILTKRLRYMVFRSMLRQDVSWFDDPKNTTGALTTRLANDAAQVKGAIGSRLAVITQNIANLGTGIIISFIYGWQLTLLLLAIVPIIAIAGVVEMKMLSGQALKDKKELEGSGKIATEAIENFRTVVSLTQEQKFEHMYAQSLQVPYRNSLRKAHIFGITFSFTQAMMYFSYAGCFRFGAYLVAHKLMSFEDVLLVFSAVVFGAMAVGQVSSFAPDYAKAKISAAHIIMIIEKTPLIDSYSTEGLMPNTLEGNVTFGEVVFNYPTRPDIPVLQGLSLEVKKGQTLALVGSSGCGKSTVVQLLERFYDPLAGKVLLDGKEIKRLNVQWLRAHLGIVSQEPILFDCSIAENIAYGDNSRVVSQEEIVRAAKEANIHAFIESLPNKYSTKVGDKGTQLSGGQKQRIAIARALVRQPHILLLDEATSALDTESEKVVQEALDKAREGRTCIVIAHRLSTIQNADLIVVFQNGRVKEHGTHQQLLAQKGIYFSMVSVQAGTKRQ
Protocol: (§2) When the cell transport system was mature in culture, experiments were performed. […] When assessing permeability in basolateral to apical (B-A) direction, 100 μL of pre-warmed Buffer B and 600 μL of pre-warmed test solutions were added to the apical and basolateral compartments, respectively. The Transwells® were placed in an incubator at 37 °C and 5% CO2 for a duration of 2 h. At the end of the incubation period, the samples in the apical and basolateral sides were collected separately and were briefly kept at a temperature of −40 °C for LC-MS/MS analysis. […] The cells were transferred to Transwell® plates (Corning, NY, USA) at a density of 2 × 10^4 cells/well with 200 μL of cell suspension per well, while 850 μL of complete medium was added to the basolateral chamber. […] The samples were collected separately and were briefly kept at a temperature of −40 °C for LC-MS/MS analysis.
The test system of data set [4] is Calu-3 cell model. The data set is described as follows: Bidirectional transport, Calu-3 air-liquid culture model. Particulars: Calu-3, 2 μM, Mean ± SD, n = 3.
Data set [5] deals with LLC-PK1 cells. The data set is described as follows: Permeability assay, LLC-PK1-MOCK cells. The following applies: LLC-PK1, 2 μM, Mean ± SD, n = 3. Type of data set: in vitro ADME.
Protocol: as §2
Data set [6] relates to A549 cells. The data set is described as follows: Uptake study by A549 cells. Type of data set: in vitro ADME, human. The following applies: 10 µM, 37 °C or 4 °C. The method, then: A549 cells were cultured in DMEM medium supplemented with 10% FBS and PS (100 U/mL) at 37 °C in a humidified 5% CO2 incubator. Cells were seeded on 24-well plates at a density of 3 × 10^4 cells/well. For the uptake assay, the DMEM media were removed, and the cells were washed with pre-warmed Hank’s buffer three times (1 mL/well). The third washing buffer was retained in the wells, and the plate was placed in an incubator at 37 °C or 4 °C for 30 min prior to the initiation of the uptake experiment. Following the removal of the washing buffer, 200 μL of pre-warmed test drug solution (Hank’s buffer containing the 10 µM peramivir) was added into each well, and the plates were incubated at 37 °C or 4 °C for 2, 5, and 15 min. Then the incubation solution was removed, and the cells were washed with ice-cold transportation buffer three times (1 mL/well). A total of 0.2 mL pure water was added to each well to lyse the cells by repeated freezing and thawing (−196 °C~37 °C, three times). The cell lysate was collected and stored at −40 °C for LC-MS/MS analysis and protein measurement.

The test system of data set [7] is Caco-2 cell model. On the set-up: method as in PMID 28000173. Particulars: Caco-2, 10 μM; cited from earlier work.
The conditions of data set [8]: oral; cited from earlier work.
Data set [9] relates to NCI-H441 cell model. The data set is described as follows: Bidirectional transport, NCI-H441 air-liquid culture model. The data set is classed as in vitro ADME, human. Particulars: NCI-H441, 2 μM. The method, then:
NCI-H441 cells were cultured in RPMI-1640 medium (Gibco, Thermo, CA, USA) supplemented with 10% FBS and PS (100 U/mL) at 37 °C in a humidified 5% CO2 incubator, and the medium was changed every other day. […] Then, 850 μL of complete medium (containing 200 nM dexamethasone) was added to the basolateral chamber. […] Subsequently, an air-interfaced culture (AIC) was initiated by supplying 650 μL of culture medium to the basolateral chamber only. The culture medium was replaced every other day.
as §1

Setting [10] is: LLC-PK1-MDR1, 2 μM, Mean ± SD, n = 3.

SMILES strings stand for the structures. A value given as a limit tells only on which side of the number the result lay.

Regarding `CCC(CC)[C@H](NC(C)=O)[C@@H]1[C@H](O)[C@@H](C(=O)O)C[C@H]1N=C(N)N` [Peramivir], the “exposure in alveolar epithelial lining fluid after inhalation relative to equivalent i.v. dose” value in data set [1] was “exceeding 370 times”. For the same compound, the “tissue–plasma partition coefficient, Kp” value in [1] (intravenous, all tissues except renal and alveolar epithelial lining) is listed as below 1. For the same compound, the ER in data set [2] is given as 0.75; in data set [9], 1.11. The “Papp A-B” value in [2] (Mean ± SD, n = 3) is on record as 1.19 ± 0.16 ×10−6 cm/s; in [3] (setting [10]), “BLQ”; in data set [4], “BLQ”; in data set [5], “BLQ”; in [9] (Mean ± SD, n = 3) it was 1.15 ± 0.16 ×10−6 cm/s. The “Papp B-A” value in data set [2] (Mean ± SD, n = 3) was 0.9 ± 0.17 ×10−6 cm/s; in data set [3] (setting [10]) it was 0.23 ± 0.03 ×10−6 cm/s; in [4] it was “BLQ”; in data set [5], 0.21 ± 0.04 ×10−6 cm/s; in data set [9] (Mean ± SD, n = 3), 1.28 ± 0.36 ×10−6 cm/s. Besides, in [3] (Papp(B→A) LLC-PK1-MDR1 vs LLC-PK1-MOCK), the “P-gp transporter substrate status” value is given as “not a substrate of the P-gp transporter”. Besides, in data set [6], the “uptake rate in A549 cell model” value is “low”. The Papp in data set [7] was 3.29 ± 0.739 × 10^−7 cm·s^−1. In addition, in [8], the oral bioavailability is reported as 3%.
